Experimental data taken from patent US20220281831A1, “FUSED-GLUTARIMIDE CRBN LIGANDS AND USES THEREOF” (Kymera Therapeutics, Inc., priority 2019, published 2022).

biological target: His-tagged CRBN-DDB1 complex (Homo sapiens, UniProt Q96SW2); experiment: Time-Resolved Fluorescence Resonance Energy Transfer (TR-FRET / HTRF) CRBN binding assay, displacement of Cy5-labeled thalidomide; settings: His-CRBN-DDB1, Cy5-thalidomide 8 nM, 1 hour room temperature
Description: Time-Resolved Fluorescence Resonance Energy Transfer (TR-FRET) Assay.
Equal volumes of His-tagged CRBN-DDB1 complex (56 nM) was mixed with Eu-cryptate labeled Anti-6HIS-monoclonal antibody (50× dilution from the commercial stock solution, Vender: Cisbio, Cat. #61HI2KLA) in a final buffer containing 20 mM HEPES pH 7.0, 150 mM NaCl, 0.005% Tween-20. […] The mixture were incubated at room temperature for 1 hour. FRET signals were measured on an EnVision plate reader (Perkin Elmer) by exciting at 340 nm and recording emission at both 615 nm as no FRET control and 665 nm as the FRET signals with a 60 microsecond delay. FRET efficiency was calculated as the ratio of fluorescent signals at […]. Quantitative loss of FRET efficiency as a function of compound concentrations was fitted by a four-parameter Logistic Function using GraphPad Prism 7.0 and the IC50 values were reported for each compound.
The compound numbers correspond to the compound numbers in Table 1.

Chain of His-tagged CRBN-DDB1 complex (Q96SW2 whole entry): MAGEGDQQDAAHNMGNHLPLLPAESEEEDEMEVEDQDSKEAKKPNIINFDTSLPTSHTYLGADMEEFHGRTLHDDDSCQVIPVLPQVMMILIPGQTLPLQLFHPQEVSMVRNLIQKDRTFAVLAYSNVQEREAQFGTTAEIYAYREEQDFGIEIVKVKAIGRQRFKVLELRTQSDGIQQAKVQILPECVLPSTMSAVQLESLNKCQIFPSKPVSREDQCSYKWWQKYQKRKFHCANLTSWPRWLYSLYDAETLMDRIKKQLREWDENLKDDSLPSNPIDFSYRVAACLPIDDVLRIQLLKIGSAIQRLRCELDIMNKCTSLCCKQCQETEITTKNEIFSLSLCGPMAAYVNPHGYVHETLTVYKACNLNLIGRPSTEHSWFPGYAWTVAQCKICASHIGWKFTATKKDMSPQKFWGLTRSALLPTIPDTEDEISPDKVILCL
Chain of His-tagged CRBN-DDB1 complex (Q16531 whole entry partner): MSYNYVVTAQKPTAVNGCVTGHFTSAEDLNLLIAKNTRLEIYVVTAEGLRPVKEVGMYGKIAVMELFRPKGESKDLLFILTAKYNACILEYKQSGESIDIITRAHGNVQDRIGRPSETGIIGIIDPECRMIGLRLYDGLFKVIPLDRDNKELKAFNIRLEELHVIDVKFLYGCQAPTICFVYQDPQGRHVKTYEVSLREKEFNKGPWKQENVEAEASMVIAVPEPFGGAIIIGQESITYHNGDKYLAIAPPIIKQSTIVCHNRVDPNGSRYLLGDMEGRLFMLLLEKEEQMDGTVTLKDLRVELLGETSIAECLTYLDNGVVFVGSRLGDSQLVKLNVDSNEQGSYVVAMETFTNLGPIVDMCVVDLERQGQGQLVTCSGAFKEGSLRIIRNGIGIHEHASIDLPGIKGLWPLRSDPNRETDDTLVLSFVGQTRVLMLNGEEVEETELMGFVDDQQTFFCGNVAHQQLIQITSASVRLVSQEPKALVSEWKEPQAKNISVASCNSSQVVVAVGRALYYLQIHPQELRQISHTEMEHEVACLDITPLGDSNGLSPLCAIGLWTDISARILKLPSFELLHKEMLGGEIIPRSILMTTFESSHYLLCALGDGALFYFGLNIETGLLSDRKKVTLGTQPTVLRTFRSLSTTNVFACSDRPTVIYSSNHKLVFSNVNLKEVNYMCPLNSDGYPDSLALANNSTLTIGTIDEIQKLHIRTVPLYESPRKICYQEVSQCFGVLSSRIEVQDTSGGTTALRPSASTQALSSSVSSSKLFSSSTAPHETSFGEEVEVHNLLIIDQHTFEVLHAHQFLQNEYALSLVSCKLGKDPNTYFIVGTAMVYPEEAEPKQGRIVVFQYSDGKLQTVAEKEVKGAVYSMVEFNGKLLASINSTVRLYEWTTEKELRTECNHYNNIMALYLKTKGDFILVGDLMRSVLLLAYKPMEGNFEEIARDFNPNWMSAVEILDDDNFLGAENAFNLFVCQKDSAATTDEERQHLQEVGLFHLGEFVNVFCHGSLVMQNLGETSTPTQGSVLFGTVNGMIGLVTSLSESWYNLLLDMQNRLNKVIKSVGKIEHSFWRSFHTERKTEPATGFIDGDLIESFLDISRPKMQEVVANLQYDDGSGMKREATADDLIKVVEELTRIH

How did the IC50 turn out when `O=C1Cc2cnc(Br)cc2C(=O)N1` [Compound I-13, 7-bromo-2,4-dihydro-2,6-naphthyridine-1,3-dione] was run?
Its IC50 is greater than 100 µM.

Which IC50 does the source give for `O=C1NC(=O)c2cc(Br)ccc21` [Compound I-28, 5-bromo-2H-isoindole-1,3-dione] here?
Its IC50 is greater than 100 µM.

Which IC50 does the source give for `Cc1ccccc1-c1ccc2c(c1)C(=O)NC2=O` [Compound I-30, 5-(2-methylphenyl)-2H-isoindole-1,3-dione] here?
The IC50 was greater than 100 µM.

`Cc1ncoc1-c1ccc2c(c1)C(=O)NC2=O` [Compound I-32, 5-(4-methyl-1,3-oxazol-5-yl)-2H-isoindole-1,3-dione] was tested. Which IC50 did it give?
The IC50 was greater than 100 µM.

How did the IC50 turn out when `Cc1ccccc1-n1cc2c(n1)CC(=O)NC2=O` [Compound I-35, 2-(2-methylphenyl)-5H,7H-pyrazolo[4,3-c]pyridine-4,6-dione] was run?
The IC50 was greater than 100 µM.

`O=c1[nH]c(=O)c2cc(Br)ccc2[nH]1` [Compound I-55, 6-Bromo-1,3-dihydroquinazoline-2,4-dione] was tested. Which IC50 did it give?
Its IC50 is greater than 100 µM.

How did the IC50 turn out when `O=c1[nH]c(=O)c2c(Br)cccc2[nH]1` [Compound I-56, 5-Bromo-1,3-dihydroquinazoline-2,4-dione] was run?
The IC50 was greater than 100 µM.

With `Cn1c(=O)[nH]c(=O)c2cc(Br)ccc21` [Compound I-59, 6-bromo-1-methyl-3H-quinazoline-2,4-dione] as the molecule, how does the IC50 read?
The IC50 was greater than 100 µM.

How did the IC50 turn out when `Cn1c(=O)[nH]c(=O)c2c(Br)cccc21` [Compound I-60, 5-bromo-1-methyl-3H-quinazoline-2,4-dione] was run?
Its IC50 is greater than 100 µM.

How did the IC50 turn out when `O=C1CC2(CCN(c3ccc(Br)cc3)CC2)CC(=O)N1` [Compound I-86] was run?
Its IC50 is greater than 100 µM.

`COc1cc(F)ccc1N1CCC2(CC1)CC(=O)NC(=O)C2` [Compound I-87] was tested. Which IC50 did it give?
The IC50 was greater than 100 µM.

How did the IC50 turn out when `COc1cccc(N2CCC3(CC2)CC(=O)NC(=O)C3)c1` [Compound I-88] was run?
Its IC50 is greater than 100 µM.

For `O=C1CC2(CCN(c3cccc(Cl)c3)CC2)CC(=O)N1` [Compound I-89], which IC50 is on record?
The IC50 was greater than 100 µM.

For `O=C1CC2(CCN(c3ccc(C(=O)NC4CC4)cc3)CC2)CC(=O)N1` [Compound I-90], which IC50 is on record?
The IC50 was greater than 100 µM.

How did the IC50 turn out when `O=C1CC2(CCN(c3ccc(OCc4ccccc4)cc3)CC2)CC(=O)N1` [Compound I-91] was run?
The IC50 was greater than 100 µM.

`O=C1CC2(CCN(c3ccc(F)cc3)CC2)CC(=O)N1` [Compound I-92] was tested. Which IC50 did it give?
The IC50 was 30 to 100 µM.

For `Cc1ccc(N2CCC3(CC2)CC(=O)NC(=O)C3)cc1` [Compound I-93], which IC50 is on record?
Its IC50 is greater than 100 µM.

Which IC50 does the source give for `O=C1CC2(CCN(c3cccc4ncccc34)CC2)CC(=O)N1` [Compound I-94] here?
Its IC50 is greater than 100 µM.

Which IC50 does the source give for `CCCOc1ccc(N2CCC3(CC2)CC(=O)NC(=O)C3)cc1` [Compound I-95] here?
Its IC50 is 30 to 100 µM.

`CCOC(=O)c1cccc(N2CCC3(CC2)CC(=O)NC(=O)C3)c1` [Compound I-96] was tested. Which IC50 did it give?
Its IC50 is greater than 100 µM.

`O=C1CC2(CCN(c3cccc(O)c3)CC2)CC(=O)N1` [Compound I-97] was tested. Which IC50 did it give?
Its IC50 is greater than 100 µM.

For `O=C1CC2(CCN(c3ccc(-c4ccccc4)cc3)CC2)CC(=O)N1` [Compound I-98], which IC50 is on record?
The IC50 was greater than 100 µM.

Which IC50 does the source give for `O=C1CC2(CCN(c3cccc(F)c3)CC2)CC(=O)N1` [Compound I-99] here?
The IC50 was greater than 100 µM.

For `CC(=O)Nc1cccc(N2CCC3(CC2)CC(=O)NC(=O)C3)c1` [Compound I-100], which IC50 is on record?
The IC50 was greater than 100 µM.

How did the IC50 turn out when `CC(C)Oc1cccc(N2CCC3(CC2)CC(=O)NC(=O)C3)c1` [Compound I-101] was run?
Its IC50 is greater than 100 µM.

For `O=C1CC2(CCN(c3cccc(OC(F)(F)F)c3)CC2)CC(=O)N1` [Compound I-102], which IC50 is on record?
Its IC50 is greater than 100 µM.

How did the IC50 turn out when `O=C1CC2(CCN(c3ccc(O)cc3)CC2)CC(=O)N1` [Compound I-103] was run?
The IC50 was greater than 100 µM.

For `O=C1CC2(CCN(c3cccc4cnccc34)CC2)CC(=O)N1` [Compound I-104], which IC50 is on record?
The IC50 was greater than 100 µM.

With `O=C1CC2(CCN(c3ccc(OC(F)(F)F)cc3)CC2)CC(=O)N1` [Compound I-105] as the molecule, how does the IC50 read?
The IC50 was greater than 100 µM.

`O=C1CC2(CCN(c3cccc(C(=O)O)c3)CC2)CC(=O)N1` [Compound I-106] was tested. Which IC50 did it give?
Its IC50 is greater than 100 µM.

For `CS(=O)(=O)c1ccc(N2CCC3(CC2)CC(=O)NC(=O)C3)cc1` [Compound I-107], which IC50 is on record?
The IC50 was greater than 100 µM.

`CC(C)(C)OC(=O)NCc1ccc(N2CCC3(CC2)CC(=O)NC(=O)C3)cc1` [Compound I-108] was tested. Which IC50 did it give?
The IC50 was 30 to 100 µM.

With `O=C1CC2(CCN(c3cccc4cccnc34)CC2)CC(=O)N1` [Compound I-109] as the molecule, how does the IC50 read?
The IC50 was greater than 100 µM.

How did the IC50 turn out when `O=C1CC2(CCN(c3ccc(F)cc3Cl)CC2)CC(=O)N1` [Compound I-110] was run?
Its IC50 is greater than 100 µM.

For `N#Cc1ccccc1N1CCC2(CC1)CC(=O)NC(=O)C2` [Compound I-111], which IC50 is on record?
Its IC50 is greater than 100 µM.

With `O=Cc1ccc(N2CCC3(CC2)CC(=O)NC(=O)C3)cc1` [Compound I-112] as the molecule, how does the IC50 read?
The IC50 was greater than 100 µM.

With `Nc1ccc(N2CCC3(CC2)CC(=O)NC(=O)C3)cc1` [Compound I-113] as the molecule, how does the IC50 read?
Its IC50 is greater than 100 µM.

`O=C1CC2(CCN(c3ccc(Oc4ccccc4)cc3)CC2)CC(=O)N1` [Compound I-114] was tested. Which IC50 did it give?
The IC50 was 30 to 100 µM.

For `O=C1CC2(CCN(c3ccccc3Cl)CC2)CC(=O)N1` [Compound I-115], which IC50 is on record?
The IC50 was greater than 100 µM.

`NC(=O)c1ccc(N2CCC3(CC2)CC(=O)NC(=O)C3)cc1` [Compound I-116] was tested. Which IC50 did it give?
The IC50 was greater than 100 µM.

How did the IC50 turn out when `COc1ccc2cc(N3CCC4(CC3)CC(=O)NC(=O)C4)ccc2c1` [Compound I-117] was run?
Its IC50 is greater than 100 µM.

With `O=C1CC2(CCN(c3ccc4c(c3)CCO4)CC2)CC(=O)N1` [Compound I-118] as the molecule, how does the IC50 read?
The IC50 was greater than 100 µM.

`O=C1CC2(CCN(c3ccc4c(c3)OCO4)CC2)CC(=O)N1` [Compound I-119] was tested. Which IC50 did it give?
The IC50 was greater than 100 µM.

With `O=C1NC(=O)[C@@H]2CN(c3ccc(-c4ccccc4)c(F)c3)C[C@H]12` [Compound I-120] as the molecule, how does the IC50 read?
Its IC50 is greater than 100 µM.

With `Cc1ccccc1N1C[C@@H]2C(=O)NC(=O)[C@@H]2C1` [Compound I-121] as the molecule, how does the IC50 read?
Its IC50 is greater than 100 µM.

With `COC(=O)c1ccc(N2C[C@@H]3C(=O)NC(=O)[C@@H]3C2)cc1` [Compound I-122] as the molecule, how does the IC50 read?
Its IC50 is greater than 100 µM.

With `O=C1NC(=O)[C@@H]2CN(c3ccc(Br)cc3)C[C@H]12` [Compound I-123] as the molecule, how does the IC50 read?
Its IC50 is 30 to 100 µM.

Which IC50 does the source give for `COc1cccc(N2C[C@@H]3C(=O)NC(=O)[C@@H]3C2)c1` [Compound I-125] here?
The IC50 was greater than 100 µM.

`O=C1NC(=O)[C@@H]2CN(c3cccc(Cl)c3)C[C@H]12` [Compound I-126] was tested. Which IC50 did it give?
The IC50 was greater than 100 µM.

How did the IC50 turn out when `O=C(NC1CC1)c1ccc(N2C[C@@H]3C(=O)NC(=O)[C@@H]3C2)cc1` [Compound I-127] was run?
The IC50 was greater than 100 µM.

How did the IC50 turn out when `O=C1NC(=O)[C@@H]2CN(c3ccc(OCc4ccccc4)cc3)C[C@H]12` [Compound I-128] was run?
The IC50 was greater than 100 µM.

For `O=C1NC(=O)[C@@H]2CN(c3ccc(F)cc3)C[C@H]12` [Compound I-129], which IC50 is on record?
The IC50 was greater than 100 µM.

How did the IC50 turn out when `Cc1ccc(N2C[C@@H]3C(=O)NC(=O)[C@@H]3C2)cc1` [Compound I-130] was run?
Its IC50 is 30 to 100 µM.

`O=C1NC(=O)[C@@H]2CN(c3cccc4ncccc34)C[C@H]12` [Compound I-131] was tested. Which IC50 did it give?
Its IC50 is greater than 100 µM.

For `O=C1NC(=O)[C@@H]2CN(c3cccc(O)c3)C[C@H]12` [Compound I-134], which IC50 is on record?
Its IC50 is greater than 100 µM.

With `O=C1NC(=O)[C@@H]2CN(c3cccc(F)c3)C[C@H]12` [Compound I-135] as the molecule, how does the IC50 read?
Its IC50 is greater than 100 µM.

Which IC50 does the source give for `CC(=O)Nc1cccc(N2C[C@@H]3C(=O)NC(=O)[C@@H]3C2)c1` [Compound I-136] here?
Its IC50 is greater than 100 µM.

`CC(C)Oc1cccc(N2C[C@@H]3C(=O)NC(=O)[C@@H]3C2)c1` [Compound I-137] was tested. Which IC50 did it give?
Its IC50 is greater than 100 µM.

Which IC50 does the source give for `CCCOc1ccc(N2C[C@@H]3C(=O)NC(=O)[C@@H]3C2)cc1` [Compound I-138] here?
The IC50 was greater than 100 µM.

Which IC50 does the source give for `O=C1NC(=O)[C@@H]2CN(c3cccc(OC(F)(F)F)c3)C[C@H]12` [Compound I-139] here?
The IC50 was greater than 100 µM.

For `O=C1NC(=O)[C@@H]2CN(c3ccc(O)cc3)C[C@H]12` [Compound I-140], which IC50 is on record?
The IC50 was greater than 100 µM.
